According to patent US20240109934A1, “ANTIBIOTICS WITH IMPROVED DRUG RESISTANCE PROFILE” (priority 2021, published 2024):

Key:
[1] = system: human foreskin fibroblasts (HFF-1); assay: Cell viability, Alamar Blue assay; format: cell-based; settings: 72 h incubation, error SEM n = 2, listed as FA(1), read-out: IC50, Mammalian Toxicity in HFF-1
Experimental: Cell Culture. HFF-1 cells were obtained from ATCC. HFF-1 cells were grown in DMEM with 15% fetal bovine serum (Gemini Benchmark, Cat #100-106), 100 U/mL penicillin, and 100 μg/mL streptomycin. All cells were cultured at 37° C. in a 5% CO2 environment. Media was prepared by the University of Illinois School of Chemical Sciences Cell Media Facility.
Cell Viability. Cells were harvested, seeded in a 96 well-plate and allowed to adhere. Cells were treated with investigational compounds in DMSO (1% final concentration). Cells were incubated for 72 h before viability was assessed by the Alamar Blue Assay. Raptinal ([…]) was used as a dead control.

[2] = cited from earlier work
[3] = Mouse MTD / tolerability; settings: mice
Experimental: The protocol was approved by the IACUC at the University of Illinois at Urbana-Champaign (Protocol Number: 16144 and 19181). In these studies, 10- to 12-week-old female C57BL/6 mice purchased from Charles River were used. The maximum tolerated dose (MTD) of single compound was determined first. […] All the mice were monitored for signs of toxicity for 2 weeks. For multiple doses, the compound was given by daily IP for 4 consecutive days, and mice were monitored for signs of toxicity for 1 month. MTD was the highest dosage with acceptable toxicity (e.g., <20% weight loss).

Row | Structure (SMILES) | IC50 [1] | Half-life in humans ([2]; in vivo) | Cmax (drug plasma level) ([2]; patients, front-loading regimen 3 g first day, 1.2 g daily thereafter) | Tolerability ([3]; 50 mg/kg IP once-a-day for 4 consecutive days) | Tolerability ([3]; single dose of 50 mg/kg, IP injection)
1 | CC(=O)O[C@H]1C[C@@]2(C)[C@@H](C[C@@H](O)[C@H]3[C@@]4(C)CC[C@@H](O)[C@@H](C)[C@@H]4CC[C@@]32C)/C1=C(\CCC=C(C)C)C(=O)O [FA, Fusidic acid] | 146 ± 11 µM | 10 to 14 h | greater than 130 μg/mL | – | –
2 | CC(=O)O[C@H]1C[C@@]2(C)[C@@H](C[C@@H](O)[C@H]3[C@@]4(C)CC[C@@H](O)[C@@H](C)[C@@H]4CC[C@@]32C)/C1=C(\CCC=C1CCCC1)C(=O)O [FA-CP, (Z)-2-((3R,4S,5S,8S,9S,10S,11R,13R,14S,16S)-16-acetoxy-3,11-dihydroxy-4,8,10,14-tetramethylhexadecahydro-17H-cyclopenta[a]phenanthren-17-ylidene)-5-cyclopentylidenepentanoic acid] | – | – | – | well tolerated | well tolerated
